Data as given in patent US11918575B2, “PZA and cytochrome Bc1 inhibitor combination treatment” (priority 2017, dated 2024).
Values after ≈ are worked out from the molar mass of the structure shown.

Tests used:
[1] = system: Mycobacterium tuberculosis H37Rv; test: Mouse tuberculosis infection model, CFU counts in the lungs after treatment; format: in vivo; conditions: female Swiss mice infected i.v. with H37Rv; oral once daily 5 times/week for 4 weeks (day 12-37); necropsy day 41; BDQ 3 mg/kg, Q203 or Cpd X 20 mg/kg, PZA 150 mg/kg; cut off 1.10 = below detectable level
[2] = format: physicochemical
Protocol: All formulations prepared in 20% HP-β-CD, and used for 5 treatments (one week).
All formulations were solutions and stored at 4° C. during the study.
Stability of BDQ and Q203 in formulation was previously tested, for PZA and Cpd X the stability was tested after one week and found acceptable for both compounds

M. tuberculosis H37Rv = conditions: strain M. tuberculosis H37Rv, inside macrophages; cited from earlier work
M. tuberculosis = conditions: cited from earlier work

| Compound | mean log10 (CFUs in the lungs) [1] [log10] | stability in formulation [2] | MIC50 (M. tuberculosis H37Rv) [nM] | activity against replicating and non-replicating bacteria (M. tuberculosis) |
| --- | --- | --- | --- | --- |
| COc1nc2ccc(Br)cc2cc1[C@@H](c1ccccc1)[C@@](O)(CCN(C)C)c1cccc2ccccc12 [BDQ, Bedaquiline] | 4.46 | – | – | – |
| CCc1nc2ccc(Cl)cn2c1C(=O)NCc1ccc(N2CC3(CCN(c4ccc(OC(F)(F)F)cc4)CC3)C2)cc1 [Cpd X] | 4.75 | acceptable | – | – |
| NC(=O)c1cnccn1 [PZA, Pyrazinamide] | 3.47 | acceptable | – | – |
| CCc1nc2ccc(Cl)cn2c1C(=O)NCc1ccc(N2CCC(c3ccc(OC(F)(F)F)cc3)CC2)cc1 [Q203] | 4.55 | – | 0.28 (≈ 0.156 ng/mL) | highly active |
